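Test compounds were applied to cells in 96-well plates for 48 hours at 5 doses. GI50 marks 50% less growth.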 The source made the active and inactive calls. Rule as the data show it: active = GI50 up to about 1.1 µM and inactive = higher.
How the values were obtained:
Assay in all cases: inhibition of tumour cell growth, NCI panel, 48 h
[1] = system: 786-0
[2] = system: OVCAR-3
[3] = system: M14
[4] = system: T47D
[5] = system: COLO 205
[6] = system: UACC-62
[7] = system: K562
[8] = system: OVCAR-8
[9] = system: NCI/ADR-RES
[10] = system: U-251
[11] = system: SF-268
[12] = system: SF-295
[13] = system: SK-OV-3
[14] = system: RPMI-8226
[15] = system: NCI-H23
[16] = system: Hs-578T
[17] = system: HOP-62
[18] = system: EKVX
[19] = system: OVCAR-4
[20] = system: SR

Measured: GI50

c1ccc2c(c1)Cn1c-2nc2ccccc21
inactive: [1] > 100 µM | [2] > 100 µM | [3] > 100 µM | [4] > 100 µM | [5] 98.4 µM | [6] > 100 µM | [7] > 100 µM | [8] > 100 µM | [9] > 100 µM | [10] > 100 µM | [11] > 100 µM | [12] > 100 µM | [13] > 100 µM | [14] 65 µM | [15] > 100 µM | [16] > 100 µM | [17] > 100 µM | [18] > 100 µM | [19] > 100 µM

Cc1ccc(Cl)c2c(=O)c3ccc(N)cc3sc12
inactive: [1] 24.9 µM | [2] 20 µM | [3] 28.4 µM | [4] 18.9 µM | [5] 16.6 µM | [6] 14.9 µM | [7] 18.4 µM | [8] 13.2 µM | [9] 15.1 µM | [11] 27.9 µM | [12] 13.5 µM | [14] 15 µM | [15] 23.9 µM | [16] 10.4 µM | [17] 19.7 µM | [18] 5.55 µM

Cc1nn(-c2ccccc2)c2nc3c(c(C)nn3-c3ccccc3)c(-c3ccccc3Br)c12
inactive: [1] > 100 µM | [2] > 100 µM | [3] > 100 µM | [4] > 100 µM | [5] > 100 µM | [20] > 100 µM | [6] > 100 µM | [7] > 100 µM | [8] > 100 µM | [9] > 100 µM | [10] > 100 µM | [11] > 100 µM | [12] 57.3 µM | [13] > 100 µM | [14] > 100 µM | [15] > 100 µM | [17] > 100 µM | [18] > 100 µM | [19] > 100 µM

N#Cc1c(=O)c2ccccc2n2ccccc12
inactive: [1] > 100 µM | [4] > 100 µM | [5] > 100 µM | [20] > 100 µM | [6] > 100 µM | [7] > 100 µM | [8] > 100 µM | [9] > 100 µM | [10] > 100 µM | [11] > 100 µM | [14] > 100 µM | [15] > 100 µM | [16] > 100 µM | [19] > 100 µM

[B].c1ccc([Si](OCCN2CC2)(c2ccccc2)c2ccccc2)cc1
inactive: [1] 14.2 µM | [2] 16.4 µM | [3] 15.9 µM | [4] 15.6 µM | [5] 12.2 µM | [6] 14.2 µM | [7] 8.3 µM | [8] 16.6 µM | [9] 14.1 µM | [10] 14 µM | [11] 11 µM | [12] 14.3 µM | [13] 14.4 µM | [14] 13.9 µM | [15] 15.6 µM | [16] 12.4 µM | [17] 14.9 µM | [18] 12.8 µM | [19] 10.8 µM

CCCCCCCCCCCCCCCCCCNc1ccn(C2OC(COP(=O)(O)OCC3CCC(n4cnc5c(=O)[nH]cnc54)O3)C(O)C2O)c(=O)n1 (configuration not stated)
inactive: [1] 43.5 µM | [2] > 100 µM | [3] > 100 µM | [4] 95.5 µM | [5] > 100 µM | [6] > 100 µM | [8] > 100 µM | [9] > 100 µM | [10] > 100 µM | [11] > 100 µM | [12] > 100 µM | [13] > 100 µM | [15] > 100 µM | [16] > 100 µM | [17] > 100 µM | [18] > 100 µM | [19] > 100 µM

Nc1nc(Cl)c2nnn(CC3CCC(CO)C3)c2n1 (configuration not stated)
inactive: [1] > 100 µM | [2] > 100 µM | [3] > 100 µM | [4] > 100 µM | [5] > 100 µM | [6] > 100 µM | [7] > 100 µM | [9] > 100 µM | [10] > 100 µM | [11] > 100 µM | [12] > 100 µM | [13] > 100 µM | [14] > 100 µM | [16] > 100 µM | [17] > 100 µM | [18] > 100 µM | [19] > 100 µM

CCOC(=O)CSc1nc(-c2ccc(Cl)cc2)c(C#N)c(=O)[nH]1
inactive: [1] > 100 µM | [2] > 100 µM | [3] > 100 µM | [4] 85.1 µM | [5] > 100 µM | [6] 92 µM | [7] 36 µM | [8] > 100 µM | [9] > 100 µM | [10] > 100 µM | [11] > 100 µM | [12] > 100 µM | [13] > 100 µM | [14] > 100 µM | [15] > 100 µM | [16] > 100 µM | [17] > 100 µM | [18] > 100 µM | [19] > 100 µM

CC(=O)[C@@H]1C/C(=C\OCc2ccccc2)O[C@H]1C
inactive: [1] > 100 µM | [2] > 100 µM | [3] > 100 µM | [4] > 100 µM | [5] > 100 µM | [7] 54 µM | [8] > 100 µM | [9] > 100 µM | [10] > 100 µM | [11] > 100 µM | [12] > 100 µM | [13] > 100 µM | [14] > 100 µM | [15] > 100 µM | [17] > 100 µM | [18] > 100 µM | [19] > 100 µM

COC(=O)c1c(C)cccc1C1CN=NC12Cc1ccc(C)c(C)c1C2=O (configuration not stated)
inactive: [1] 51.3 µM | [2] 32.4 µM | [3] 30.5 µM | [4] 3.2 µM | [20] 16.6 µM | [6] 15.3 µM | [7] 18.2 µM | [8] 27.1 µM | [9] 15.2 µM | [10] 35.2 µM | [11] 49.4 µM | [12] 42.7 µM | [14] 9.84 µM | [15] 46.5 µM | [16] 37.7 µM | [17] 77.1 µM | [18] 12.2 µM | [19] 24.9 µM

CC1=CC2(O)OC3(CC2=C(C)C)C(C)CCC13 (configuration not stated)
inactive: [1] > 100 µM | [2] > 100 µM | [3] > 100 µM | [4] > 100 µM | [5] > 100 µM | [6] > 100 µM | [7] > 100 µM | [8] > 100 µM | [9] > 100 µM | [10] > 100 µM | [11] > 100 µM | [12] > 100 µM | [13] > 100 µM | [14] > 100 µM | [15] > 100 µM | [16] > 100 µM | [17] > 100 µM | [18] > 100 µM | [19] > 100 µM

COc1ccc(-c2c3c(n(C4OC(CO)C(O)C(O)C4O)c(=S)c2C#N)CC(C)(C)CC3=O)cc1 (configuration not stated)
inactive: [1] > 100 µM | [2] > 100 µM | [3] > 100 µM | [4] 13.8 µM | [5] > 100 µM | [20] 74.5 µM | [6] 97.3 µM | [7] > 100 µM | [8] > 100 µM | [9] > 100 µM | [10] > 100 µM | [11] > 100 µM | [12] > 100 µM | [14] 89.7 µM | [15] > 100 µM | [16] > 100 µM | [17] > 100 µM | [19] > 100 µM

O=C(O)Cn1ccc(=O)c2c([N+](=O)[O-])cccc21
inactive: [1] > 100 µM | [2] > 100 µM | [3] > 100 µM | [4] > 100 µM | [5] > 100 µM | [20] > 100 µM | [6] > 100 µM | [7] > 100 µM | [8] > 100 µM | [9] > 100 µM | [10] > 100 µM | [11] > 100 µM | [12] > 100 µM | [13] > 100 µM | [15] > 100 µM | [16] > 100 µM | [17] > 100 µM

Cc1ccc(/N=C2/SC(c3ccc(C)cc3)(c3ccc(C)cc3)c3ccccc32)cc1
inactive: [1] > 100 µM | [2] > 100 µM | [3] > 100 µM | [4] > 100 µM | [5] > 100 µM | [6] > 100 µM | [7] > 100 µM | [8] > 100 µM | [9] > 100 µM | [10] > 100 µM | [11] > 100 µM | [12] > 100 µM | [13] > 100 µM | [14] > 100 µM | [15] > 100 µM | [16] > 100 µM | [17] > 100 µM | [18] > 100 µM | [19] > 100 µM

COC1/C=C\OC2(C)Oc3c(C)c(O)c4c(O)c(c(/C=N\OCCCc5ccccc5)c(O)c4c3C2=O)NC(=O)/C(C)=C\C=C/C(C)C(O)C(C)C(O)C(C)C(OC(C)=O)C1C (configuration not stated)
inactive: [1] 3.24 µM | [2] 3.07 µM | [3] 2.71 µM | [4] 4.45 µM | [5] 1.78 µM | [20] 2.81 µM | [6] 2.79 µM | [7] 4.16 µM | [8] 4.9 µM | [9] 3.66 µM | [10] 4.36 µM | [11] 4.93 µM | [12] 4.72 µM | [13] 4.42 µM | [15] 3.21 µM | [16] 6.31 µM | [17] 2.59 µM | [18] 4.52 µM | [19] 3.08 µM

Source: ChEMBL document CHEMBL1201862, “PubChem BioAssay data set” (2004)
